Source: patent US20250092401A1, “COMBINATION THERAPY FOR TREATING HEPATITIS B VIRUS INFECTIONS” (GLAXOSMITHKLINE INTELLECTUAL PROPERTY DEVELOPMENT LIMITED, priority 2022, published 2025)
pEC50: −log10 of the molar value. ≈ marks a conversion by molar mass, not a printed value. Where “and” joins values, the source holds several entries; their conditions need not be identical. Identical values can stand only once. Like-named read-outs stand apart in the source and are kept apart here.

What was measured:
HBV HBsAg [1] = assay: HBsAg reduction in HepAD38 cell line (HBsAg ELISA); assay type: cell-based, hepatitis B virus (HBV); settings: Hepatitis B virus; for pEC50: HePAD38, 168 h, read-out: HBsAg (EC50)
Description: HepAD38 cells were maintained in collagen-coated flasks in cell culture medium (DMEM/F12 containing 10% fetal bovine serum (FBS), GlutaMax-1, penicillin/streptomycin, non-essential amino acids, Na pyruvate, 250 μg/mL geneticin, and 1 μg/mL doxycycline). Compound solutions were prepared in DMSO and compounds were serially diluted for final concentrations of 4000, 1000, 250, 62.5, 15.6, 3.91, 0.977, 0.244, 0.061, and 0.015 nM. The cells were then trypsinized and the cells were plated at 10,000 cells per well. Plates were incubated at 37° C., 5% CO2 for 4 days. Media was replaced with new media with compound treatment. The plates were then incubated at 37° C., 5% CO2 for an additional 3 days for a total treatment time of 7 days. For antiviral response, HBsAg was measured using the HBsAg ELISA kit (International Immuno-diagnostics) with instructions provided. 100 μL of cell media samples was used for ELISA. The absorbance was read on the SPECTRAMAX 384 plate reader (Molecular Devices) at 450 nm. For cell toxicity, the cells were used for CELLTITER-GLO Luminescent Cell Viability Assay reagent (Promega). The luminescence was read on Envision Multilabel Reader (Perkin Elmer). The data was analyzed compared to the DMSO control.
% inhibition=(1−(unknown/high control))*100
The average % inhibition values from duplicate assay plates were then plotted in GraphPad Prism to determine one EC value: Four-parameter logistic curve with equation Y=Bottom+(Top-Bottom)/(1+10^((Log EC50−X)*Hillslope))
(§1) The antiviral activity of Compound A was evaluated in in vitro HBV systems: (1) HepAD38, a hepatoma cell line with inducible expression of HBV, (2) primary human hepatocytes (PHHs) infected with HBV, and in vivo in infected male C57BL/6 mice with AAV-HBV. Overall there is a correlation between in vitro potency (HepAD38 & PHHs) and AAV-HBV in vivo model HBsAg inhibition.

[2] = preclinical; terminated in Phase 1 clinical trials due to toxicity; cited from earlier work
HBV HBsAg [3] = assay: HBsAg reduction in HBV infected primary human hepatocytes (ELISA); assay type: cell-based; settings: Hepatitis B virus, Hepatocyte
Description: The potency (pIC50) of Compound A for reduction of HBV HBsAg was investigated in primary human hepatocytes (PHH) from three donors. HBV infected PHH samples were treated with Compound A for 21 days and secreted HBsAg was measured using an ELISA assay to determine the % inhibition and average potency of the replicates (two per PHH donor).
as §1

[4] = test system: primary human hepatocytes (PHH); assay: Visual examination for cell toxicity in PHH; assay type: cell-based; settings: HBV infected PHH, 21 days treatment
[5] = Toxicity evaluation incl. nerve toxicity, 28 days of dosing, rats; assay type: in vivo; settings: 28 days of dosing followed by 6 week off dose period
Description: (§2) Studies were conducted to evaluate toxicity, including additional endpoints investigating nerve toxicity of Compound A after 28 days of dosing followed by a 6 week off dose period in rats and monkeys.

[6] = Toxicity evaluation incl. nerve toxicity, 28 days of dosing, monkeys; assay type: in vivo; settings: 28 days of dosing followed by 6 week off dose period
Description: as §2

PAPD5 = PAPD5 (Homo sapiens, UniProt Q8NDF8); assay: PAPD5 A15 RNA SPA biochemical assay
Description: (§3) Dose-response studies were conducted for Compound A and RG7834 in the PAPD5 and PAPD7 A15 RNA SPA formats. Four different batches of Compound A and two different batches of RG7834 were used in both assays. Reactions contained 5 uM ATP, 0.0025 uCi/uL 3H-ATP, 50 nM A15 RNA, 10 nM enzyme in assay buffer (20 mM Tris 7.5, 3 mM CHAPS, 0.05% dBSA, 10 mM MgCl2, 1 mM DTT, 25 mM KCl). Reaction product was detected using SPA bead mix, final concentrations were 1 mg/mL PEI-PS, 1.25 mM ATP, 11.25 mM EDTA. End point signal detection correlated with slopes of reaction time courses. Curve fitting was performed using 4-parameter fitting in ActivityBase software.

PAPD7 = PAPD7 (Homo sapiens, UniProt Q5XG87); assay: PAPD7 A15 RNA SPA biochemical assay; settings: 10 nM enzyme, 5 uM ATP, 50 nM A15 RNA; read-out: average pIC50 PAPD7 (converted)
Description: as §3

AAV-HBV [7] = assay: AAV-HBV mouse model, mono-treatment; assay type: in vivo, male C57BL/6 mice; settings: for HBsAg reduction: within one week of treatment, sustained
Description: After 28 days of infection with AAV-HBV, mono-treatment of the infected male C57BL/6 mice with either Compound A or bepirovirsen was initiated. […] HBsAg reduction for the 3 and 30 mg/kg Compound A dose groups was close to 1 log and 1 log, respectively, within one week of treatment and reduction levels were sustained throughout the duration of the treatment period. […] The maximum observed reduction in HBeAg was 0.5 log at 30 mg/kg Compound A. There was a small reduction (0.26 to 0.40 log) in HBV DNA at the 3 and 30 mg/kg Compound A dose levels when compared to the combined vehicle group. […]

AAV-HBV [8] = assay: AAV-HBV mouse model, sequential treatment; assay type: in vivo, male C57BL/6 mice; settings: 30 mg/kg Compound A alone
From the text: After 35 days of infection with AAV-HBV, sequential treatment of the infected male C57BL/6 mice began first with Compound A followed by bepirovirsen.
[…], reductions in HBsAg was observed, reaching a maximum reduction of over 1 log and nearly 2 logs, respectively, by the second week. This reduction was statistically significant when compared to the combined vehicle group.

PAPD5, sequence (Q8NDF8 whole entry): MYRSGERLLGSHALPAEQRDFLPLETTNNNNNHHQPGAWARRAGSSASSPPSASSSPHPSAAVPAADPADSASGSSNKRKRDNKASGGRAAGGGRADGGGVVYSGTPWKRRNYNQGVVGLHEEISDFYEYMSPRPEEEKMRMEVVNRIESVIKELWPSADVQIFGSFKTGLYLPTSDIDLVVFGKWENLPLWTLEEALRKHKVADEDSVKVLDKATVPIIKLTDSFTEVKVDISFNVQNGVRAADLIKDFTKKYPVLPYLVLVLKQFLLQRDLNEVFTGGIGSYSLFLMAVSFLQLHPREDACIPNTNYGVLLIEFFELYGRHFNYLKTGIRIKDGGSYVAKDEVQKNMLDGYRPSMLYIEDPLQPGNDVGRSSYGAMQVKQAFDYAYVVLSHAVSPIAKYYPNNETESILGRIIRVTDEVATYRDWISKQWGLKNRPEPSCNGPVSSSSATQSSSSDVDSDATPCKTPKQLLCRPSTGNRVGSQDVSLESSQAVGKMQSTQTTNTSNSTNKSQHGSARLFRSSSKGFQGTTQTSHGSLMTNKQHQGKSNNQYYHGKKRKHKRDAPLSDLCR
PAPD7, sequence (Q5XG87 whole entry): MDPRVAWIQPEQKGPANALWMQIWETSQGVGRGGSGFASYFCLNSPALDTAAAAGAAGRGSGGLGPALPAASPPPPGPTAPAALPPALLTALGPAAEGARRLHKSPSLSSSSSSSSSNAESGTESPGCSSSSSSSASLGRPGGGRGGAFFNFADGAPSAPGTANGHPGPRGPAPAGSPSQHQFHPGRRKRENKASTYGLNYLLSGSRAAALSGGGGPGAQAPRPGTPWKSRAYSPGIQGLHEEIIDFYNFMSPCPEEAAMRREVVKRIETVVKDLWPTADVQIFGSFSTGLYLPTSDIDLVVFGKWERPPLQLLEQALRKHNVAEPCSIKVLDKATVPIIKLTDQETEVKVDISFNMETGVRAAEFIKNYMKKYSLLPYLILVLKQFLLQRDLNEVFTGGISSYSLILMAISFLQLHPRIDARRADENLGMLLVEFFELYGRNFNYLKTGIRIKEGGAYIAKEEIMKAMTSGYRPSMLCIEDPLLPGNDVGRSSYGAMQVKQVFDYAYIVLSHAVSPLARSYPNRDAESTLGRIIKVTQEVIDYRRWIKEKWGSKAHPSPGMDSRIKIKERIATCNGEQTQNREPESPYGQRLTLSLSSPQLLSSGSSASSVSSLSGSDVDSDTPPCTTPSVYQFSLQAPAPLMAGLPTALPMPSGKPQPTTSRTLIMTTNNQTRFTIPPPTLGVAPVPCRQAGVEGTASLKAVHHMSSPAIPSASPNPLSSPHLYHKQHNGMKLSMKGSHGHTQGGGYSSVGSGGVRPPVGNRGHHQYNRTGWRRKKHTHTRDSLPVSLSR

COCCCOc1cc2c(cc1OC)-c1cc(=O)c(C(=O)O)cn1[C@H](C(C)C)C2 [RG7834, reference compound]
pEC50 (HBV HBsAg [1]): 8.70
no adverse effect dose [2]: no adverse effect dose could not be established

COCCCOc1cc2c(nc1Cl)-c1cc(=O)c(C(=O)O)cn1[C@H]1[C@@H]2CCC1(C)C [Compound A]
IC50 (HBV HBsAg [3]): 0.00095 µg/mL and 2.19 nM
IC50 (HBV HBsAg [3]; 504 h, read-out: average pIC50 for reduction of HBV HBsAg (converted)): 0.832 nM
IC90 (HBV HBsAg [3]; read-out: Calculated IC90): 8.55 ng/mL (≈ 0.0198 µM)
cell toxicity (visual examination) [4]: no detected sign of cell toxicity
no adverse effect dose [5]: No adverse effect doses were established
no adverse effect dose [6]: No adverse effect doses were established
IC50 (HBV HBsAg [1]; HePAD38): 0.00056 µg/mL and 1.3 nM
pEC50 (HBV HBsAg [1]): 9.52
IC90 (HBV HBsAg [1]; HePAD38, read-out: Calculated IC90): 5.04 ng/mL (≈ 0.0116 µM)
IC50 (PAPD5; 10 nM enzyme, 5 uM ATP, 50 nM A15 RNA, read-out: average pIC50 PAPD5 (converted)): 12.6 nM
more potent than RG7834 by (PAPD5; PAPD5 and PAPD7 assays (FIG. 2)): > 0.5 log
IC50 (PAPD7): 20 nM
reduction in HBsAg (AAV-HBV [7]; Compound A 0.3 mg/kg, over the course of treatment): minimal reduction in HBsAg
HBsAg reduction compared to the combined vehicle group (AAV-HBV [7]; Compound A 3 mg/kg or 30 mg/kg): statistically significant HBsAg reduction
HBsAg reduction (AAV-HBV [7]; Compound A 3 mg/kg): ~1 log
maximum observed reduction in HBeAg (AAV-HBV [7]; Compound A 30 mg/kg): 0.5 log
HBsAg reduction (AAV-HBV [7]; Compound A 30 mg/kg): 1 log
HBsAg levels off-treatment (AAV-HBV [7]; Compound A, following one week off-treatment): rebounded to baseline
IC50 (AAV-HBV [7]; Mus musculus): 5.8e-05 µg/mL and 0.13 nM
IC90 (AAV-HBV [7]; Mus musculus, read-out: Calculated IC90): 0.522 ng/mL (≈ 0.00121 µM)
effect on levels of HBeAg (AAV-HBV [7]; during treatment with Compound A, stabilized after day 7, rebounded within one week after end): dose dependent reduction
HBsAg off-treatment (AAV-HBV [8]; within one week off-treatment): rebounded to baseline
reduction in HBsAg (AAV-HBV [8]; within one week, stable up to 28 days, statistically significant): ~1 log

Cc1cc2c(cc1OCC1COC1)CC1(CCC1)n1cc(C(=O)O)c(=O)cc1-2 [Compound B, reference compound]
pEC50 (HBV HBsAg [1]): 8.52
